Measured values published in US11396517B1, “Exo-aza spiro inhibitors of menin-MLL interaction” (Janssen Pharmaceutica NV, priority 2017, dated 2022).
Read-outs that look alike come from different tables or passages of the source.

Key:
menin = biological target: T1, menin (Homo sapiens, UniProt O00255, T541A); assay: Menin/MLL homogenous time-resolved fluorescence (HTRF) assay; type: binding
T1 construct: Menin (a.a. 1-610-6×his tag)
T1 sequence (O00255 with tags, fused parts or gaps T541A): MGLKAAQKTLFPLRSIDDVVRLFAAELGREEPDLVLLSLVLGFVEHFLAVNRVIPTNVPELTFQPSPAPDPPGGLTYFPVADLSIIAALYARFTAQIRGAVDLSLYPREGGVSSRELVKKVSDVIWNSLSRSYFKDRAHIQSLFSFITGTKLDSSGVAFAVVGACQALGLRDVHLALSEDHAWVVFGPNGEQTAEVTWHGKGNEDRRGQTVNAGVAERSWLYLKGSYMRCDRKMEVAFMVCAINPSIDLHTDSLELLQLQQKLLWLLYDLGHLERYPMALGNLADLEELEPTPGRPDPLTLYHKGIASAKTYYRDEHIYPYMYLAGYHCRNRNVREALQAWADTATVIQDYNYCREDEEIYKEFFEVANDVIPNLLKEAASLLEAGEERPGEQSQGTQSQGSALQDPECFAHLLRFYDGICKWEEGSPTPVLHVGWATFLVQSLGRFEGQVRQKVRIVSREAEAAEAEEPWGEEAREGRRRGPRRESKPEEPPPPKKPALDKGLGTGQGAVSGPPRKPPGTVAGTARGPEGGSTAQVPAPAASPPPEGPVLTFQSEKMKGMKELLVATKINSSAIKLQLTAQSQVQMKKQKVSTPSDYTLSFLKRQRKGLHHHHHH
Method in brief: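 Displacement of 75 nM FITC-MBM1 from terbium-cryptate-labeled His-tagged menin 1-610 ([…]) was read as the 520/490 nm HTRF ratio. Compound (11-point, 3-fold series) got 5 min with menin before peptide, then 15 min at ambient; 0.5% DMSO, Tris pH 7.5.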

MOLM14 = assay: Proliferation assay B (spheroid assay) MOLM14; type: cell-based, human; conditions: MOLM14 cells, confluence at day 8, absolute IC50, read-out: (3b) Spheroid assay MOLM14 (IC50(μM)) Assay B
Procedure: 3b) Proliferation Assay B
The anti-proliferative effect of menin/MLL protein/protein interaction inhibitor test compounds was assessed in human leukemia cell lines. The cell lines MV-4-11 and MOLM14 harbor MILL translocations and express the MILL fusion proteins MLL-AF4 and MLL-AF9, respectively, as well as the wildtype protein from the second allele. […] K562 was used as a control cell line containing two MLL wildtype alleles in order to exclude compounds that display general cytotoxic effects.
MV-4-11 and MOLM14 were cultured in RPMI-1640 (Sigma Aldrich) supplemented with 10% fetal bovine serum (HyClone), 2 mM L-glutamine (Sigma Aldrich) and 50 μg/ml gentamycin (Gibco). K562 were propagated in RPMI-1640 (Sigma Aldrich) supplemented with 20% fetal bovine serum (HyClone), 2 mM L-glutamine (Sigma Aldrich) and 50 μg/ml gentamycin (Gibco).
In order to assess the anti-proliferative effects, 1,500 MV-4-11, 300 MOLM14 cells or 750 K562 cells were seeded in 200 μl media per well in 96-well round bottom, ultra-low attachment plates (Costar, catalogue number 7007). Cell seeding numbers were chosen based on growth curves to ensure linear growth throughout the experiment. Test compounds were added at different concentrations and the DMSO content was normalized to 0.3%. Cells were incubated for 8 d at 37° C. and 5% CO2. Spheroid like growth was measured in real-time by live-cell imaging (IncuCyteZOOM, Essenbio, 4× objective) acquiring images at day 8. Confluence (%) as a measure of spheroid size was determined using an integrated analysis tool.
In order to determine the effect of the test compounds over time, the confluence in each well as a measure of spheroid size, was calculated. Confluence […] at the beginning of the experiment (t=0) was used as baseline for the calculation.
Absolute IC50 values were calculated as percent change in confluence as follows:
LC=Low Control: cells treated with 1 μM of the cytotoxic agent staurosporin
HC=High Control: Mean confluence (%) (DMSO treated cells) % Effect=100−(100*(Sample−LC)/(HC−LC))
To determine the IC50 a curve is fitted to the plot of % Effect vs Log 10 compound concentration using a sigmoidal fit with a variable slope and fixing the maximum to 100% and the minimum to 0%.

[1] = location 2, read-out: (2) location 2 Menin HTRF assay (IC50 (nM))

SMILES | IC50 (menin; [1]) | IC50 (MOLM14; Homo sapiens, MOLM-14, 192 h) | IC50 (MOLM14) | IC50 (menin; location 1, read-out: (2) location 1 Menin HTRF assay (IC50 (nM)))
CS(=O)(=O)NCc1ccc(NC2CC3(CCN(c4ncnc5sc(CC(F)(F)F)cc45)C3)C2)cc1 (single isomer, unassigned) [Compound 368] | 2.9 nM |  | 2.61 µM | 
N#CCc1ccc(NC2CC3(CCN(c4nc(N)nc5sc(CC(F)(F)F)cc45)C3)C2)cc1 (single isomer, unassigned) [Compound 379] | 1.4 nM | > 3.75 µM |  | 
Nc1nc(N2CCC3(CC(Nc4ccc5[nH]c(=O)[nH]c5c4)C3)C2)c2cc(CC(F)(F)F)sc2n1 (single isomer, unassigned) [Compound 382] | 27.9 nM | > 3.75 µM |  | 
CNc1nc(N2CCC3(CC(Nc4ccc5[nH]c(=O)[nH]c5c4)C3)C2)c2cc(CC(F)(F)F)sc2n1 (single isomer, unassigned) [Compound 394] | 13.8 nM | > 3.75 µM |  | 
CC1CN(C(=O)c2ccc(NC3CC4(CCN(c5ncnc6sc(CC(F)(F)F)cc56)C4)C3)cc2)CC(C)O1 (single isomer, unassigned) [Compound 405] | 1100 nM | > 3.75 µM |  | 
O=C(c1ccc(NC2CC3(CCN(c4ncnc5sc(CC(F)(F)F)cc45)C3)C2)cc1)N1CCS(=O)(=O)CC1 (single isomer, unassigned) [Compound 412] | 7510 nM |  | > 3.75 µM | 
CNC(=O)c1cnc(NC2CC3(CCN(c4ncnc5sc(CC(F)(F)F)cc45)C3)C2)cn1 (single isomer, unassigned) [Compound 418] | 749 nM | > 3.75 µM |  | 
O=C(c1ccc(NC2CC3(CCN(c4ncnc5sc(CC(F)(F)F)cc45)C3)C2)nn1)N1CCOCC1 (single isomer, unassigned) [Compound 421] | 208 nM |  | > 3.75 µM | 
CNC(=O)c1ccc(N[C@@H]2CC[C@@]3(CCN(c4ncnc5sc(CC(F)(F)F)cc45)C3)C2)cc1 (stereo in doubt) [Compound 134] | 1.6 nM | 1.29 µM |  | 
FC(F)(F)Cc1cc2c(N3CC[C@@]4(CC[C@@H](Nc5ccc(-c6cc[nH]n6)cc5)C4)C3)ncnc2s1 (stereo in doubt) [Compound 139] | 3.5 nM | 0.56 µM |  | 
FC(F)(F)Cc1cc2c(N3CC[C@@]4(CC[C@H](Nc5ccc(-c6cc[nH]n6)cc5)C4)C3)ncnc2s1 (stereo in doubt) [Compound 140] | 30.9 nM | 1.82 µM |  | 
CNC(=O)c1ccc(NC2CC3(CCN(c4ncnc5sc(CC(F)(F)F)cc45)C3)C2)cc1OCCN(C)C (stereo not shown) [Compound 76] | 354 nM | > 3.75 µM |  | 
O=C(NCCO)c1ccc(NC2CC3(CCN(c4ncnc5sc(CC(F)(F)F)cc45)C3)C2)cc1 (stereo not shown) [Compound 83] | 58.7 nM | > 3.75 µM |  | 
O=C(NCCN1CCOCC1)c1ccc(NC2CC3(CCN(c4ncnc5sc(CC(F)(F)F)cc45)C3)C2)cc1 (stereo not shown) [Compound 87] | 191 nM | > 3.75 µM |  | 
CNC(=O)c1ccc(NC2CC3(CCN(c4ncnc5sc(CC(F)(F)F)cc45)C3)C2)cc1F (stereo not shown) [Compound 203] | 2.8 nM | 2.39 µM |  | 
CNC(=O)c1ccc(NC2CC3(CCN(c4ncnc5sc(CC(F)(F)F)cc45)C3)C2)c(C)c1 (stereo not shown) [Compound 212] | 58.1 nM |  | > 3.75 µM | 
CNC(=O)c1ccc(NC2CC3(CCN(c4ncnc5sc(CC(F)(F)F)cc45)C3)C2)cc1C (stereo not shown) [Compound 237] | 489 nM |  | > 3.75 µM | 

More lines, now with the values ahead:

IC50 (menin; [1]) | IC50 (MOLM14; Homo sapiens, MOLM-14, 192 h) | IC50 (MOLM14) | IC50 (menin; location 1, read-out: (2) location 1 Menin HTRF assay (IC50 (nM))) | SMILES
63.6 nM | > 3.75 µM |  |  | CS(=O)(=O)NCc1ccc(NC2CC3(CCN(c4ncnc5sc(CC(F)(F)F)cc45)C3)C2)cc1 (single isomer, unassigned) [Compound 367]
4.4 nM | > 3.75 µM |  |  | CNc1nc(N2CCC3(CC(Nc4ccc5oc(=O)[nH]c5c4)C3)C2)c2cc(CC(F)(F)F)sc2n1 (single isomer, unassigned) [Compound 397]
16.2 nM |  | > 3.75 µM |  | CNc1nc(N2CCC3(CC(Nc4ccc5oc(=O)[nH]c5c4)C3)C2)c2cc(CC(F)(F)F)sc2n1 (single isomer, unassigned) [Compound 398]
36 nM |  | > 3.75 µM |  | CC1CN(C(=O)c2ccc(NC3CC4(CCN(c5ncnc6sc(CC(F)(F)F)cc56)C4)C3)cc2)CC(C)O1 (single isomer, unassigned) [Compound 406]
1020 nM | > 3.75 µM |  |  | COC[C@H]1COCCN1C(=O)c1ccc(NC2CC3(CCN(c4ncnc5sc(CC(F)(F)F)cc45)C3)C2)cc1 (single isomer, unassigned) [Compound 407]
16.4 nM |  | > 3.75 µM |  | COC[C@H]1COCCN1C(=O)c1ccc(NC2CC3(CCN(c4ncnc5sc(CC(F)(F)F)cc45)C3)C2)cc1 (single isomer, unassigned) [Compound 408]
101 nM | > 3.75 µM |  |  | O=C(c1ccc(NC2CC3(CCN(c4ncnc5sc(CC(F)(F)F)cc45)C3)C2)cc1)N1CCS(=O)(=O)CC1 (single isomer, unassigned) [Compound 411]
10.8 nM |  | 3.04 µM |  | CNC(=O)c1cnc(NC2CC3(CCN(c4ncnc5sc(CC(F)(F)F)cc45)C3)C2)cn1 (single isomer, unassigned) [Compound 419]
3380 nM | > 3.75 µM |  |  | O=C(c1ccc(NC2CC3(CCN(c4ncnc5sc(CC(F)(F)F)cc45)C3)C2)nn1)N1CCOCC1 (single isomer, unassigned) [Compound 420]
23.9 nM | > 3.75 µM |  |  | CNC(=O)c1ccc(N[C@H]2CC[C@@]3(CCN(c4ncnc5sc(CC(F)(F)F)cc45)C3)C2)cc1 (stereo in doubt) [Compound 135]
409 nM | > 3.75 µM |  |  | CNC(=O)c1ccc(N[C@@H]2CC[C@]3(CCN(c4ncnc5sc(CC(F)(F)F)cc45)C3)C2)cc1 (stereo in doubt) [Compound 136]
5.7 nM | > 3.75 µM |  |  | CNC(=O)c1ccc(N[C@H]2CC[C@]3(CCN(c4ncnc5sc(CC(F)(F)F)cc45)C3)C2)cc1 (stereo in doubt) [Compound 137]
3.9 nM | 2.3 µM |  |  | FC(F)(F)Cc1cc2c(N3CC[C@]4(CC[C@@H](Nc5ccc(-c6cc[nH]n6)cc5)C4)C3)ncnc2s1 (stereo in doubt) [Compound 141]
45.7 nM | 0.6 µM |  |  | FC(F)(F)Cc1cc2c(N3CC[C@]4(CC[C@H](Nc5ccc(-c6cc[nH]n6)cc5)C4)C3)ncnc2s1 (stereo in doubt) [Compound 142]
26.8 nM | > 3.75 µM |  |  | CNC(=O)c1ccc(NC2CC3(CCN(c4ncnc5sc(CC(F)(F)F)cc45)C3)C2)c(F)c1 (stereo not shown) [Compound 66]
0.7 nM | 1.13 µM |  |  | COCCNC(=O)c1ccc(NC2CC3(CCN(c4ncnc5sc(CC(F)(F)F)cc45)C3)C2)cc1 (stereo not shown) [Compound 85]
362 nM | > 3.75 µM |  | 342 nM | CS(=O)(=O)N[C@H]1CC[C@H](NC2CC3(CCN(c4ncnc5sc(CC(F)(F)F)cc45)C3)C2)CC1 (stereo partly shown) [Compound 102]
17.8 nM | 3.39 µM |  |  | CCS(=O)(=O)N[C@H]1CC[C@H](CNC2CC3(CCN(c4ncnc5sc(CC(F)(F)F)cc45)C3)C2)CC1 (stereo partly shown) [Compound 106]
22.1 nM | > 3.75 µM |  |  | O=C1NCCN1Cc1ccc(NC2CC3(CCN(c4ncnc5sc(CC(F)(F)F)cc45)C3)C2)cc1 (stereo not shown) [Compound 107]
